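These data come from cells grown in 96-well plates and exposed to compound for 48 hours at five concentrations. TGI denotes the concentration required for complete inhibition of growth.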
What was measured:
Test in all cases: DTP human tumour cell line panel, 48 h
UO-31 renal = tested on: UO-31 renal
HOP-92 NSCLC = tested on: HOP-92 NSCLC
SF-295 CNS = tested on: SF-295 CNS
UACC-257 melanoma = tested on: UACC-257 melanoma
K-562 leukemia = tested on: K-562 leukemia
SK-OV-3 ovarian = tested on: SK-OV-3 ovarian
A549 NSCLC = tested on: A549 NSCLC
CCRF-CEM leukemia = tested on: CCRF-CEM leukemia
SK-MEL-28 melanoma = tested on: SK-MEL-28 melanoma
NCI-H226 lung = tested on: NCI-H226 lung

Row | SMILES | TGI (UO-31 renal) [µM] | TGI (HOP-92 NSCLC) [µM] | TGI (SF-295 CNS) [µM] | TGI (UACC-257 melanoma) [µM] | TGI (K-562 leukemia) [µM] | TGI (SK-OV-3 ovarian) [µM] | TGI (A549 NSCLC) [µM] | TGI (CCRF-CEM leukemia) [µM] | TGI (SK-MEL-28 melanoma) [µM] | TGI (NCI-H226 lung) [µM]
1 | O=C(O)c1cc(N=Nc2ccc([N+](=O)[O-])cc2)ccc1O | 67.6 | 56.9 | 83.7 | 74.7 | > 100 | > 100 | > 100 | > 100 | > 100 | 79.4
2 | COc1ccc2c(c1)CC[C@@H]1[C@@H]2CC[C@]2(C)/C(=N/OCCN3CCCC3)CC[C@@H]12 | 7.54 | 6.5 | 4.63 | 3.81 | 2.58 |  | 7.7 | 3.67 | 2.82 | 5.26
3 | Cc1nc2cn3c(c2c(=O)[nH]1)CCCCC3 | > 100 | > 100 | > 100 | > 100 | > 100 | > 100 |  | > 100 | > 100 | > 100
4 | Cc1ccc(C2(O)c3ccccc3C(=O)N(C)C2(O)c2ccc(C)cc2)cc1 (stereo not drawn) | > 100 | 91.1 | > 100 | > 100 | > 100 | > 100 | > 100 | 39.3 | > 100 | 
5 | O=Cc1c2c(cc3c1CC1(C3)Cc3cc4c(c(C=O)c3C1)CCCC4)CCCC2 |  | > 31.6 | > 31.6 | > 31.6 | 54.1 | > 31.6 | > 31.6 | 30.2 | > 100 | > 31.6
6 | COC(=O)[C@H](CNC(=O)/C=C/c1ccc(OC(C)=O)c(OC(C)=O)c1)NC(=O)/C=C/c1ccc(OC(C)=O)c(OC(C)=O)c1 |  | > 100 |  | > 100 | > 100 | > 100 | > 100 | > 100 | > 100 | > 100
7 | c1ccc(-c2csc3c2-n2cccc2C3N2CCCC2)cc1 (stereo not drawn) | > 100 | 81.9 | > 100 | 39.9 | > 100 |  | > 100 | > 100 | > 100 | > 100
8 | COC1(OC)CC2C(=O)N(Cc3ccccc3)C1C(S(=O)(=O)c1ccccc1)C2C(C)S(=O)(=O)c1ccccc1 (stereo not drawn) |  | > 100 | > 100 | > 100 | > 100 | > 100 | > 100 | > 100 | > 100 | 
9 | Cc1ccc2nc(N)[nH]c(=O)c2c1Sc1ccncc1 | > 100 | > 100 | > 100 | > 100 | > 31.6 | > 100 | > 100 | > 100 | > 100 | 
10 | CCN(CC)CC1CCCCN1CC(=O)N1c2cc(Cl)ccc2NC(=O)CC1C (stereo not drawn) | > 100 | > 100 |  | > 100 | > 100 | > 100 | > 100 | > 100 | > 100 | > 100
11 | O=C1c2ccccc2N=C(c2cc3c(cc2Cl)Sc2nccn2S3(=O)=O)OS(=O)(=O)N1c1ccccc1 | 91.3 | > 100 | 42.4 | > 100 | 74.5 | > 100 | > 100 | 41.7 |  | > 100
12 | O=C(N/N=C(/COc1ccccc1)N=Cc1ccncc1)c1ccncc1 |  | > 100 | > 100 | > 100 | > 100 | > 100 | > 100 | > 100 | > 100 | 
13 | Cn1c(N/N=C/c2ccccc2)nc(-c2ccc3c(c2)OCO3)c(C#N)c1=O | > 100 | 67.2 | > 100 | > 100 | > 100 | > 100 | > 100 | > 100 | > 100 | 
14 | CC(=O)N1C(C(=O)NN2CCOCC2)CSC1c1ccccc1 (stereo not drawn) | > 100 | > 100 | > 100 | > 100 | > 100 | > 100 | > 100 | > 100 |  | > 100
15 | NC(Cc1ccc(O)cn1)C(=O)NC(C(=O)O)c1ccccc1 (stereo not drawn) | > 100 | > 100 | > 100 | > 100 | > 100 |  | > 100 | > 100 | > 100 | > 100
16 | COC(CNC(=O)CNC(=O)c1ccc(C(F)(F)F)cc1)OC | > 100 | > 100 | > 100 | > 100 | > 100 | > 100 | > 100 | > 100 |  | > 100
17 | CC(C)OP(=O)(OC(C)C)C(=NCCO)NNc1ccc([N+](=O)[O-])cc1 | > 100 | > 100 |  | > 100 | > 100 |  | > 100 | > 100 | > 100 | > 100
18 | C/C=C/CC(C(=O)OCC)(N(C)C(=O)OC(C)(C)C)S(=O)(=O)c1ccc(C)cc1 (stereo not drawn) | > 100 | > 100 | > 100 | > 100 | > 100 |  | > 100 | > 100 | > 100 | > 100
19 | CCO/C(O)=C(/C(=N)N1CCOCC1)C(=O)Nc1cccc(C(F)(F)F)c1 |  | > 100 | > 100 | > 100 | > 100 | > 100 | > 100 | > 100 | > 100 | > 100

Source: PubChem BioAssay (NCI)
